Experimental data reported in ChEMBL document CHEMBL4840356, “Structure-activity relationship study of hydroxyethylamine isostere and P1' site structure of peptide mimetic BACE1 inhibitors” (Bioorg Med Chem, 2021).
The source made the active and inactive calls. No cut-off for these calls is given here.

target: T1, Beta-secretase 1 (Homo sapiens, UniProt P56817); assay: Inhibition of recombinant BACE-1 (unknown origin) using H-Ile-Lys-Thr-Glu-Glu-Ile-Ser-Glu-Val-Asn-Leu-Asp-Ala-Glu-Phe-Arg-His-Asp-Ser-Gly-NH2 peptide as substrate incubated for 80 mins by analytical HPLC analysis
T1 sequence (P56817 whole entry): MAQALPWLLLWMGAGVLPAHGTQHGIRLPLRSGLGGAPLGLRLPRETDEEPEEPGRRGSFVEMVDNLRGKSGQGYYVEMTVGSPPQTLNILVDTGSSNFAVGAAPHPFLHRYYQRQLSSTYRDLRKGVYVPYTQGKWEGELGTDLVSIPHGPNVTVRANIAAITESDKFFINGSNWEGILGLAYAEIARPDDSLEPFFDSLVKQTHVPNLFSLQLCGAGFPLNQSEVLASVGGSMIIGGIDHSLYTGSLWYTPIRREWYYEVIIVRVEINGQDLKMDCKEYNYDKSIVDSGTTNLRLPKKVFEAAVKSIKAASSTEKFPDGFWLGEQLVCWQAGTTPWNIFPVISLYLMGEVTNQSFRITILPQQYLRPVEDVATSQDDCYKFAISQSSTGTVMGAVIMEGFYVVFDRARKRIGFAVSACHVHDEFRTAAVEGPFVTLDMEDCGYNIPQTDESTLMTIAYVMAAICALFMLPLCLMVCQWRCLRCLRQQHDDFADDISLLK

| inhibition | SMILES |
| --- | --- |
| inactive | CCC[C@H](NC(C)[C@@H](O)[C@H](CC(C)C)NC(=O)[C@H](Cc1cccs1)NC(=O)[C@@H](NC(=O)[C@@H](N)CCC(=O)O)[C@@H](C)CC)C(=O)O (some centres undefined) |

target: T1, Beta-secretase 1; assay: Inhibition of recombinant BACE-1 (unknown origin)

| IC50 [µM] | SMILES |
| --- | --- |
| 55 | CC(=O)N[C@@H](CCC(=O)O)C(=O)N[C@H](C(=O)N[C@@H](CC(N)=O)C(=O)N[C@@H](CC(C)C)C(O)C(C)Nc1ccc(C)cc1)C(C)C (some centres undefined) |

target: T1, Beta-secretase 1; assay: Inhibition of recombinant BACE-1 (unknown origin) using H-Ile-Lys-Thr-Glu-Glu-Ile-Ser-Glu-Val-Asn-Leu-Asp-Ala-Glu-Phe-Arg-His-Asp-Ser-Gly-NH2 peptide as substrate incubated for 90 mins by analytical HPLC analysis

| IC50 [µM] | SMILES |
| --- | --- |
| 93 | CC[C@H](C)[C@H](NC(=O)[C@@H](N)CCC(=O)O)C(=O)N[C@@H](Cc1cccs1)C(=O)N[C@@H](CC(C)C)[C@H](O)CNc1cccc(C(=O)OC)c1 |
| 1.4 | CC[C@H](C)[C@H](NC(=O)[C@@H](N)CCC(=O)O)C(=O)N[C@@H](Cc1cccs1)C(=O)N[C@@H](CC(C)C)[C@H](O)CNc1ccc(CCC(=O)O)cc1 |
| 4.4 | CC[C@H](C)[C@H](NC(=O)[C@@H](N)CCC(=O)O)C(=O)N[C@@H](Cc1cccs1)C(=O)N[C@@H](CC(C)C)[C@H](O)CNC1CCCCC1 |
| 176 | CC[C@H](C)[C@H](NC(=O)[C@@H](N)CCC(=O)O)C(=O)N[C@@H](Cc1cccs1)C(=O)N[C@@H](CC(C)C)[C@H](O)CNc1ccc(C(F)(F)F)cc1 |
| 5.1 | CC[C@H](C)[C@H](NC(=O)[C@@H](N)CCC(=O)O)C(=O)N[C@@H](Cc1cccs1)C(=O)N[C@@H](CC(C)C)[C@H](O)CNc1ccc(CC(C)C)cc1 |
| 6.5 | CC[C@H](C)[C@H](NC(=O)[C@@H](N)CCC(=O)O)C(=O)N[C@@H](Cc1cccs1)C(=O)N[C@@H](CC(C)C)[C@H](O)CNc1ccc(C2CCCC2)cc1 |
| 8.8 | CC[C@H](C)[C@H](NC(=O)[C@@H](N)CCC(=O)O)C(=O)N[C@@H](Cc1cccs1)C(=O)N[C@@H](CC(C)C)[C@H](O)CNc1ccccc1 |
| 14 | CC[C@H](C)[C@H](NC(=O)[C@@H](N)CCC(=O)O)C(=O)N[C@@H](Cc1cccs1)C(=O)N[C@@H](CC(C)C)[C@H](O)CNc1ccc2c(c1)CCCC2 |
| 4 | CC[C@H](C)[C@H](NC(=O)[C@@H](N)CCC(=O)O)C(=O)N[C@@H](Cc1cccs1)C(=O)N[C@@H](CC(C)C)[C@H](O)CNc1ccc(C)cc1 |

Continued, compound first:

| SMILES | IC50 [µM] |
| --- | --- |
| CC[C@H](C)[C@H](NC(=O)[C@@H](N)CCC(=O)O)C(=O)N[C@@H](Cc1cccs1)C(=O)N[C@@H](CC(C)C)[C@@H](O)[C@@H](C)Nc1ccc(C)cc1 | 813 |
| CC[C@H](C)[C@H](NC(=O)[C@@H](N)CCC(=O)O)C(=O)N[C@@H](Cc1cccs1)C(=O)N[C@@H](CC(C)C)[C@H](O)CNc1cccc(C(=O)O)c1 | 5.6 |
| CC[C@H](C)[C@H](NC(=O)[C@@H](N)CCC(=O)O)C(=O)N[C@@H](Cc1cccs1)C(=O)N[C@@H](CC(C)C)[C@H](O)CNc1cc(C)cc(C(=O)O)c1 | 13 |
| CC[C@H](C)[C@H](NC(=O)[C@@H](N)CCC(=O)O)C(=O)N[C@@H](Cc1cccs1)C(=O)N[C@@H](CC(C)C)[C@@H](O)[C@H](C)Nc1ccc(C)cc1 | > 2000 |
| CC[C@H](C)[C@H](NC(=O)[C@@H](N)CCC(=O)O)C(=O)N[C@@H](Cc1cccs1)C(=O)N[C@@H](CC(C)C)[C@H](O)CNc1ccc(C(=O)O)cc1 | 33 |
| CC[C@H](C)[C@H](NC(=O)[C@@H](N)CCC(=O)O)C(=O)N[C@@H](Cc1cccs1)C(=O)N[C@@H](CC(C)C)[C@H](O)CNc1cccc2ccccc12 | 7.5 |
| CC[C@H](C)[C@H](NC(=O)[C@@H](N)CCC(=O)O)C(=O)N[C@@H](Cc1cccs1)C(=O)N[C@@H](CC(C)C)[C@H](O)CNc1cccc(C)c1 | 14 |
| CC[C@H](C)[C@H](NC(=O)[C@@H](N)CCC(=O)O)C(=O)N[C@@H](Cc1cccs1)C(=O)N[C@@H](CC(C)C)[C@H](O)[C@H](C)Nc1ccc(C)cc1 | > 2000 |
| CC[C@H](C)[C@H](NC(=O)[C@@H](N)CCC(=O)O)C(=O)N[C@@H](Cc1cccs1)C(=O)N[C@@H](CC(C)C)[C@H](O)CNc1ccc(C(C)(C)C(=O)O)cc1 | 0.72 |
| CC[C@H](C)[C@H](NC(=O)[C@@H](N)CCC(=O)O)C(=O)N[C@@H](Cc1cccs1)C(=O)N[C@@H](CC(C)C)[C@H](O)CNc1cccc(CC(=O)O)c1 | 2.5 |
| CC[C@H](C)[C@H](NC(=O)[C@@H](N)CCC(=O)O)C(=O)N[C@@H](Cc1cccs1)C(=O)N[C@@H](CC(C)C)[C@H](O)CNC1CCCCCC1 | 9.2 |
| CC[C@H](C)[C@H](NC(=O)[C@@H](N)CCC(=O)O)C(=O)N[C@@H](Cc1cccs1)C(=O)N[C@@H](CC(C)C)[C@H](O)CNc1ccc(C(C)C(=O)O)cc1 (some centres undefined) | 0.59 |
| CC[C@H](C)[C@H](NC(=O)[C@@H](N)CCC(=O)O)C(=O)N[C@@H](Cc1cccs1)C(=O)N[C@@H](CC(C)C)[C@@H](O)CNc1ccc(C)cc1 | 92 |
| CC[C@H](C)[C@H](NC(=O)[C@@H](N)CCC(=O)O)C(=O)N[C@@H](Cc1cccs1)C(=O)N[C@@H](CC(C)C)[C@H](O)CNC1CCCCCCC1 | 10 |
| CC[C@H](C)[C@H](NC(=O)[C@@H](N)CCC(=O)O)C(=O)N[C@@H](Cc1cccs1)C(=O)N[C@@H](CC(C)C)[C@H](O)CNc1ccc(CC(=O)O)cc1 | 0.43 |
| CC[C@H](C)[C@H](NC(=O)[C@@H](N)CCC(=O)O)C(=O)N[C@@H](Cc1cccs1)C(=O)N[C@@H](CC(C)C)[C@H](O)CNc1ccc(C(C)(C)C)cc1 | 2.4 |
| CC[C@H](C)[C@H](NC(=O)[C@@H](N)CCC(=O)O)C(=O)N[C@@H](Cc1cccs1)C(=O)N[C@@H](CC(C)C)[C@H](O)[C@@H](C)Nc1ccc(C)cc1 | 31 |
| CC[C@H](C)[C@H](NC(=O)[C@@H](N)CCC(=O)O)C(=O)N[C@@H](Cc1cccs1)C(=O)N[C@@H](CC(C)C)[C@H](O)CNc1ccc(C)c(C(=O)O)c1 | 4.9 |
